Test results reported in the supplement of paper PMC10307832.

What was measured:
Assay in all cases: relative viability (nuclei count vs DMSO), 5 days (fraction); higher = more cells survive
A-427 = system: A-427
How it was run: (§1)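 Relative viability is defined as nuclei in treated wells over nuclei in vehicle wells. Duplicate plates were run and medians reported. Lung cancer cell lines in 1536-well plates were dosed by pin tool one day after seeding, with one drug or with a fixed anchor-drug dose plus five library-drug doses (not always all listed) in √10 steps, and nuclei were counted after 5 days.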

CAL-12T = system: CAL-12T
How it was run: as §1

COR-L 105 = system: COR-L 105
How it was run: as §1

EPLC-272H = system: EPLC-272H
How it was run: as §1

HCC-15 = system: HCC-15
How it was run: as §1

HCC-44 = system: HCC-44
How it was run: as §1

LC-2-ad = system: LC-2-ad
How it was run: as §1

LCLC-97TM1 = system: LCLC-97TM1
How it was run: as §1

NCI-H1395 = system: NCI-H1395
How it was run: as §1

NCI-H1734 = system: NCI-H1734
How it was run: as §1

NCI-H1792 = system: NCI-H1792
How it was run: as §1

NCI-H1915 = system: NCI-H1915
How it was run: as §1

NCI-H1975 = system: NCI-H1975
How it was run: as §1

NCI-H2023 = system: NCI-H2023
How it was run: as §1

NCI-H2342 = system: NCI-H2342
How it was run: as §1

NCI-H2347 = system: NCI-H2347
How it was run: as §1

NCI-H2405 = system: NCI-H2405
How it was run: as §1

NCI-H520 = system: NCI-H520
How it was run: as §1

NCI-H838 = system: NCI-H838
How it was run: as §1

SW 1573 = system: SW 1573
How it was run: as §1

SW 900 = system: SW 900
How it was run: as §1

UMC-11 = system: UMC-11
How it was run: as §1

Q: Which results are given for CCNC(=O)c1noc(-c2cc(C(C)C)c(O)cc2O)c1-c1ccc(CN2CCOCC2)cc1 [Luminespib] + CC(=O)Nc1cccc(-n2c(=O)n(C3CC3)c(=O)c3c(Nc4ccc(I)cc4F)n(C)c(=O)c(C)c32)c1 [Trametinib] (partner 0.02 µM)?
A: relative viability (A-427; first compound 0.002 µM): 0.771; relative viability (A-427; first compound 0.006325 µM): 0.74; relative viability (A-427; first compound 0.02 µM): 0.632; relative viability (A-427; first compound 0.06325 µM): 0.607; relative viability (A-427; first compound 0.2 µM): 0.281; relative viability (CAL-12T; first compound 0.002 µM): 0.321; relative viability (CAL-12T; first compound 0.006325 µM): 0.356; relative viability (CAL-12T; first compound 0.02 µM): 0.162; relative viability (CAL-12T; first compound 0.06325 µM): 0.111; relative viability (CAL-12T; first compound 0.2 µM): 0.117; relative viability (COR-L 105; first compound 0.002 µM): 0.46; relative viability (COR-L 105; first compound 0.006325 µM): 0.43; relative viability (COR-L 105; first compound 0.02 µM): 0.384; relative viability (COR-L 105; first compound 0.06325 µM): 0.265; relative viability (COR-L 105; first compound 0.2 µM): 0.278; relative viability (EPLC-272H; first compound 0.002 µM): 0.278; relative viability (EPLC-272H; first compound 0.006325 µM): 0.309; relative viability (EPLC-272H; first compound 0.02 µM): 0.212; relative viability (EPLC-272H; first compound 0.06325 µM): 0.238; relative viability (EPLC-272H; first compound 0.2 µM): 0.0855; relative viability (HCC-15; first compound 0.002 µM): 0.394; relative viability (HCC-15; first compound 0.006325 µM): 0.364; relative viability (HCC-15; first compound 0.02 µM): 0.391; relative viability (HCC-15; first compound 0.06325 µM): 0.258; relative viability (HCC-15; first compound 0.2 µM): 0.13; relative viability (HCC-44; first compound 0.002 µM): 0.979; relative viability (HCC-44; first compound 0.006325 µM): 1.19; relative viability (HCC-44; first compound 0.02 µM): 1.24; relative viability (HCC-44; first compound 0.06325 µM): 0.982; relative viability (HCC-44; first compound 0.2 µM): 0.775; relative viability (LC-2-ad; first compound 0.002 µM): 0.926; relative viability (LC-2-ad; first compound 0.006325 µM): 0.903; relative viability (LC-2-ad; first compound 0.02 µM): 1.06; relative viability (LC-2-ad; first compound 0.06325 µM): 0.889; relative viability (LC-2-ad; first compound 0.2 µM): 0.647; relative viability (LCLC-97TM1; first compound 0.002 µM): 0.233; relative viability (LCLC-97TM1; first compound 0.006325 µM): 0.186; relative viability (LCLC-97TM1; first compound 0.06325 µM): 0.221; relative viability (LCLC-97TM1; first compound 0.2 µM): 0.166; relative viability (NCI-H1395; first compound 0.002 µM): 0.994; relative viability (NCI-H1395; first compound 0.006325 µM): 1.05; relative viability (NCI-H1395; first compound 0.02 µM): 0.827; relative viability (NCI-H1395; first compound 0.06325 µM): 0.35; relative viability (NCI-H1395; first compound 0.2 µM): 0.379; relative viability (NCI-H1734; first compound 0.002 µM): 0.65; relative viability (NCI-H1734; first compound 0.006325 µM): 0.586; relative viability (NCI-H1734; first compound 0.02 µM): 0.579; relative viability (NCI-H1734; first compound 0.06325 µM): 0.199; relative viability (NCI-H1734; first compound 0.2 µM): 0.172; relative viability (NCI-H1792; first compound 0.002 µM): 0.407; relative viability (NCI-H1792; first compound 0.006325 µM): 0.391; relative viability (NCI-H1792; first compound 0.02 µM): 0.317; relative viability (NCI-H1792; first compound 0.06325 µM): 0.0621; relative viability (NCI-H1792; first compound 0.2 µM): 0.0632; relative viability (NCI-H1915; first compound 0.002 µM): 0.316; relative viability (NCI-H1915; first compound 0.006325 µM): 0.287; relative viability (NCI-H1915; first compound 0.02 µM): 0.244; relative viability (NCI-H1915; first compound 0.06325 µM): 0.254; relative viability (NCI-H1915; first compound 0.2 µM): 0.161; relative viability (NCI-H1975; first compound 0.002 µM): 0.349; relative viability (NCI-H1975; first compound 0.006325 µM): 0.334; relative viability (NCI-H1975; first compound 0.02 µM): 0.168; relative viability (NCI-H1975; first compound 0.06325 µM): 0.107; relative viability (NCI-H1975; first compound 0.2 µM): 0.118; relative viability (NCI-H2023; first compound 0.002 µM): 0.49; relative viability (NCI-H2023; first compound 0.006325 µM): 0.56; relative viability (NCI-H2023; first compound 0.02 µM): 0.39; relative viability (NCI-H2023; first compound 0.06325 µM): 0.0742; relative viability (NCI-H2023; first compound 0.2 µM): 0.0679; relative viability (NCI-H2342; first compound 0.002 µM): 0.687; relative viability (NCI-H2342; first compound 0.006325 µM): 0.881; relative viability (NCI-H2342; first compound 0.02 µM): 0.551; relative viability (NCI-H2342; first compound 0.06325 µM): 0.889; relative viability (NCI-H2342; first compound 0.2 µM): 0.52; relative viability (NCI-H2347; first compound 0.002 µM): 0.29; relative viability (NCI-H2347; first compound 0.006325 µM): 0.307; relative viability (NCI-H2347; first compound 0.02 µM): 0.269; relative viability (NCI-H2347; first compound 0.06325 µM): 0.254; relative viability (NCI-H2347; first compound 0.2 µM): 0.294; relative viability (NCI-H2405; first compound 0.002 µM): 0.669; relative viability (NCI-H2405; first compound 0.02 µM): 0.515; relative viability (NCI-H2405; first compound 0.06325 µM): 0.252; relative viability (NCI-H2405; first compound 0.2 µM): 0.202; relative viability (NCI-H520; first compound 0.002 µM): 0.795; relative viability (NCI-H520; first compound 0.006325 µM): 0.606; relative viability (NCI-H520; first compound 0.02 µM): 0.371; relative viability (NCI-H520; first compound 0.06325 µM): 0.114; relative viability (NCI-H520; first compound 0.2 µM): 0.138; relative viability (NCI-H838; first compound 0.002 µM): 0.582; relative viability (NCI-H838; first compound 0.006325 µM): 0.474; relative viability (NCI-H838; first compound 0.02 µM): 0.294; relative viability (NCI-H838; first compound 0.06325 µM): 0.093; relative viability (NCI-H838; first compound 0.2 µM): 0.134; relative viability (SW 1573; first compound 0.002 µM): 0.604; relative viability (SW 1573; first compound 0.006325 µM): 0.483; relative viability (SW 1573; first compound 0.02 µM): 0.198; relative viability (SW 1573; first compound 0.06325 µM): 0.105; relative viability (SW 1573; first compound 0.2 µM): 0.096; relative viability (SW 900; first compound 0.002 µM): 0.837; relative viability (SW 900; first compound 0.006325 µM): 0.919; relative viability (SW 900; first compound 0.02 µM): 0.659; relative viability (SW 900; first compound 0.06325 µM): 0.165; relative viability (SW 900; first compound 0.2 µM): 0.131; relative viability (UMC-11; first compound 0.002 µM): 0.496; relative viability (UMC-11; first compound 0.006325 µM): 0.685; relative viability (UMC-11; first compound 0.02 µM): 0.308; relative viability (UMC-11; first compound 0.06325 µM): 0.212; relative viability (UMC-11; first compound 0.2 µM): 0.157
